Twelve molecules from ChEMBL document CHEMBL1201862, “PubChem BioAssay data set” (2004) can be followed below.

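Grown in 96-well plates, cells were treated for 48 hours with each compound at five concentrations. Insufficient inhibition: endpoint recorded as highest concentration tested. Here, GI50 denotes the concentration required for 50% inhibition of growth.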 Activity calls are given as the source filed them. Rule as the data show it: active = GI50 up to about 1.1 µM and inactive = higher.

Some test systems named below: HCT-15; MCF7; A549; SK-MEL-28; NCI-H23; K562; MDA-N; LOX IMVI; SF-268; NCI-H226; MOLT-4; SN12C; HCC 2998; HOP-62; OVCAR-3; DU-145; Hs-578T; OVCAR-8; A498.
Common to all, as to test: NCI tumour cell line growth inhibition, 48 h

With `Cn1c2ccccc2c(=NNc2ccc(S(N)(=O)=O)cc2)c2ccccc21`, the GI50 is 16.2 µM with HCT-15; 13.6 µM (inactive) with MCF7; 11.7 µM (inactive) in the assay with A549; 18.6 µM (inactive) in the assay on SK-MEL-28; 16 µM (inactive) in the assay with NCI-H23; 2.49 µM (inactive) with K562. The GI50 in the assay on MDA-N is 15.9 µM (inactive); with LOX IMVI, 9.29 µM (inactive); with SF-268, 18.1 µM (inactive); with NCI-H226, 10.9 µM (inactive); with MOLT-4, 3.95 µM (inactive); with SN12C, 18.4 µM (inactive). Besides, the GI50 with HCC 2998 was 14.9 µM (inactive); with HOP-62, 15.3 µM (inactive); in the assay with OVCAR-3 it was 19.5 µM (inactive); with DU-145, 21.6 µM (inactive); in the assay with Hs-578T, 32.7 µM (inactive); in the assay with OVCAR-8, 16.2 µM (inactive).
For `Cc1ccc(/C=C2\N=C(N3CCOCC3)NC2=O)cc1`, the GI50 in the assay with HCT-15 is above 100 µM; in the assay on MCF7 it was > 100 µM (inactive); in the assay with A549 it was > 100 µM (inactive); in the assay with SK-MEL-28, > 100 µM (inactive); in the assay with NCI-H23, > 100 µM (inactive); in the assay with MDA-N, > 100 µM (inactive). Moreover, the GI50 in the assay with LOX IMVI, with SF-268, in the assay with NCI-H226, with MOLT-4, with SN12C and with HCC 2998 was > 100 µM (inactive) in each case. For the same molecule, the GI50 in the assay on HOP-62 was 77.6 µM (inactive); in the assay on OVCAR-3, > 100 µM (inactive); in the assay with DU-145, > 100 µM (inactive); with Hs-578T, > 100 µM (inactive); in the assay on OVCAR-8, > 100 µM (inactive).
With `C=CCCC(CCC=C)(C(=O)O)C(=O)O`, the GI50 in the assay with HCT-15 was above 100 µM; with MCF7 it was > 100 µM (inactive); in the assay with A549 it was > 100 µM (inactive); in the assay on SK-MEL-28, > 100 µM (inactive); in the assay with NCI-H23, > 100 µM (inactive); in the assay on K562, > 100 µM (inactive). Also, the GI50 with MDA-N, with LOX IMVI, with SF-268, in the assay with MOLT-4, in the assay with SN12C and in the assay on HCC 2998 was > 100 µM (inactive) throughout. For the same molecule, the GI50 with HOP-62, with OVCAR-3, in the assay on DU-145, in the assay with Hs-578T and in the assay with OVCAR-8 was > 100 µM (inactive) each time.
With `CN(C)CCCN1c2ccccc2Sc2cnccc21`, the GI50 is above 100 µM with HCT-15; 31 µM (inactive) in the assay with A498; 61 µM (inactive) in the assay on MCF7; > 100 µM (inactive) in the assay with A549; 39.1 µM (inactive) in the assay with SK-MEL-28; 68.5 µM (inactive) in the assay with K562. Besides, the GI50 in the assay on MDA-N was 64.7 µM (inactive); in the assay with LOX IMVI, 65.2 µM (inactive); in the assay with SF-268, > 100 µM (inactive); in the assay on NCI-H226, 83.2 µM (inactive); in the assay on MOLT-4 it was 60 µM (inactive); with SN12C it was 74.1 µM (inactive). The GI50 is 41.6 µM (inactive) in the assay with HOP-62; 34 µM (inactive) in the assay with OVCAR-3; > 100 µM (inactive) in the assay on DU-145; > 100 µM (inactive) in the assay on Hs-578T; > 100 µM (inactive) with OVCAR-8.
Regarding `O=C1CCCCCCCCCCC1CN1CCOCC1` (centres undefined), the GI50 was above 100 µM in the assay with HCT-15; > 100 µM (inactive) in the assay with MCF7; > 100 µM (inactive) with A549; > 100 µM (inactive) with SK-MEL-28; > 100 µM (inactive) in the assay on NCI-H23; > 100 µM (inactive) in the assay on K562. Further, the GI50 is > 100 µM (inactive) in the assay on MDA-N; > 100 µM (inactive) with SF-268; > 100 µM (inactive) in the assay on NCI-H226; 66.1 µM (inactive) with MOLT-4; > 100 µM (inactive) with SN12C; > 100 µM (inactive) in the assay with HCC 2998. The GI50 in the assay with HOP-62 was > 100 µM (inactive); in the assay on OVCAR-3, > 100 µM (inactive); in the assay with DU-145 it was > 100 µM (inactive); in the assay with Hs-578T, 30.3 µM (inactive); in the assay on OVCAR-8, > 100 µM (inactive).
Regarding `N#CC(NC12CC3CC(CC(C3)C1)C2)c1ccc2c(c1)OCO2` (centres undefined), the GI50 with HCT-15 was above 100 µM; in the assay with MCF7, > 100 µM (inactive); in the assay on A549, > 100 µM (inactive); in the assay with SK-MEL-28, > 100 µM (inactive); with NCI-H23, > 100 µM (inactive); with K562, > 100 µM (inactive). The GI50 with MDA-N, in the assay with LOX IMVI, with SF-268, with NCI-H226, with MOLT-4 and in the assay on SN12C was > 100 µM (inactive) each time. For the same molecule, the GI50 in the assay on HCC 2998, in the assay with HOP-62, in the assay on OVCAR-3, in the assay with DU-145, in the assay on Hs-578T and in the assay with OVCAR-8 was > 100 µM (inactive) in each case.
Regarding `O=C(NNS(=O)(=O)c1ccc(Br)cc1)c1ccc(Cl)cc1NC(=O)C12CC3CC(CC(C3)C1)C2`, the GI50 in the assay on HCT-15 was 15.6 µM; with A498, 15.2 µM (inactive); in the assay on MCF7, 11.7 µM (inactive); in the assay with A549, 8.15 µM (inactive); in the assay on NCI-H23 it was 14.2 µM (inactive); in the assay with K562, 6.34 µM (inactive). Further, the GI50 in the assay with MDA-N was 14.2 µM (inactive); with LOX IMVI, 14.1 µM (inactive); in the assay on SF-268, 11.4 µM (inactive); with NCI-H226 it was 16.1 µM (inactive); in the assay with MOLT-4, 6.62 µM (inactive); in the assay on SN12C it was 18.9 µM (inactive). Further, the GI50 in the assay on HOP-62 was 19.8 µM (inactive); with OVCAR-3 it was 11.6 µM (inactive); in the assay on DU-145, 14.5 µM (inactive); in the assay with Hs-578T, 17.4 µM (inactive); in the assay with OVCAR-8 it was 13.6 µM (inactive).
Take `Cn1c2c(c3ccccc31)CCN1C(=O)CN(C(=O)C3CCCCC3)CC21` (centres undefined): the GI50 was above 100 µM in the assay with HCT-15; > 100 µM (inactive) in the assay on MCF7; > 100 µM (inactive) with A549; > 100 µM (inactive) in the assay on SK-MEL-28; > 100 µM (inactive) in the assay with NCI-H23; > 100 µM (inactive) in the assay on K562. For the same molecule, the GI50 with MDA-N, in the assay on LOX IMVI, in the assay on SF-268, in the assay with NCI-H226, in the assay with MOLT-4 and in the assay on SN12C was > 100 µM (inactive) each time. The GI50 in the assay with HCC 2998, with HOP-62, in the assay on OVCAR-3, with DU-145, in the assay on Hs-578T and with OVCAR-8 was > 100 µM (inactive) throughout.
As for `CC(=O)CSc1c(-c2ccccc2)c(=O)n(-c2ccccc2)c(=S)n1-c1ccccc1`, the GI50 in the assay on HCT-15 was above 100 µM; in the assay with MCF7 it was > 100 µM (inactive); in the assay on A549 it was > 100 µM (inactive); in the assay with SK-MEL-28, > 100 µM (inactive); in the assay on NCI-H23, > 100 µM (inactive); with K562, > 100 µM (inactive). In addition, the GI50 in the assay with MDA-N is > 100 µM (inactive); in the assay on LOX IMVI, > 100 µM (inactive); with SF-268, > 100 µM (inactive); with NCI-H226 it was > 100 µM (inactive); in the assay on MOLT-4, 47.4 µM (inactive); with SN12C, > 100 µM (inactive). The GI50 is > 100 µM (inactive) in the assay with HOP-62; > 100 µM (inactive) with OVCAR-3; > 100 µM (inactive) with DU-145; 82.2 µM (inactive) with Hs-578T; > 100 µM (inactive) in the assay with OVCAR-8.
Take `CC[C@]1(Cc2ccc(OC)c(OC)c2)C=[N+]([O-])O[C@H](OC2CCCC2(c2ccccc2)c2ccccc2)[C@@H]1OC(=O)c1ccccc1` (some centres undefined): the GI50 was 11.7 µM with HCT-15; 3.38 µM (inactive) in the assay on MCF7; 5.92 µM (inactive) with A549; 20.8 µM (inactive) with SK-MEL-28; 6.37 µM (inactive) in the assay on NCI-H23; 3.94 µM (inactive) with K562. Further, the GI50 is 8.17 µM (inactive) in the assay on MDA-N; 3.6 µM (inactive) in the assay with LOX IMVI; 28.7 µM (inactive) in the assay on SF-268; 18 µM (inactive) in the assay on NCI-H226; 2.63 µM (inactive) in the assay on MOLT-4; > 21.2 µM (inactive) in the assay with SN12C. Further, the GI50 is 9.71 µM (inactive) in the assay with HCC 2998; 9.89 µM (inactive) in the assay with HOP-62; 3.15 µM (inactive) with OVCAR-3; 10.6 µM (inactive) with DU-145; > 100 µM (inactive) with Hs-578T; 3.71 µM (inactive) in the assay with OVCAR-8.
Consider `O=C1NC(N2CCCCC2)=N/C1=C\c1ccco1`, for which the GI50 in the assay with HCT-15 was above 100 µM; in the assay with MCF7, > 100 µM (inactive); in the assay with A549 it was > 100 µM (inactive); in the assay with SK-MEL-28, > 100 µM (inactive); in the assay with NCI-H23 it was > 100 µM (inactive); in the assay on MDA-N it was > 100 µM (inactive). For the same molecule, the GI50 with LOX IMVI is > 100 µM (inactive); in the assay on SF-268, > 100 µM (inactive); in the assay with NCI-H226 it was 67.9 µM (inactive); with MOLT-4 it was > 100 µM (inactive); in the assay on SN12C it was > 100 µM (inactive); in the assay on HCC 2998, > 100 µM (inactive). For the same molecule, the GI50 in the assay on HOP-62, in the assay on OVCAR-3, in the assay with DU-145, in the assay with Hs-578T and in the assay with OVCAR-8 was > 100 µM (inactive) throughout.
As for `Cc1cc(/N=C/c2ccc(C#N)cc2)n(-c2ccccc2)n1`, the GI50 was 50.8 µM with HCT-15; 41.1 µM (inactive) in the assay with MCF7; 64.9 µM (inactive) in the assay on A549; > 100 µM (inactive) in the assay with SK-MEL-28; 56.1 µM (inactive) with NCI-H23; 26.5 µM (inactive) in the assay with K562. For the same molecule, the GI50 in the assay with MDA-N is 37.7 µM (inactive); in the assay on LOX IMVI, 63.4 µM (inactive); in the assay with SF-268, 48.5 µM (inactive); with NCI-H226 it was > 100 µM (inactive); in the assay on MOLT-4, 42.6 µM (inactive); with SN12C it was 82.2 µM (inactive). Also, the GI50 is > 100 µM (inactive) in the assay on HCC 2998; 68.9 µM (inactive) in the assay on HOP-62; 38.9 µM (inactive) in the assay with OVCAR-3; > 100 µM (inactive) in the assay with DU-145; 44.2 µM (inactive) in the assay with Hs-578T; 69 µM (inactive) with OVCAR-8.
